From patent US20250161299A1, “ORAL PCLX-001 IN THE TREATMENT OF HUMAN CANCER” (PACYLEX PHARMACEUTICALS INC., priority 2022, published 2025)
Entries after “also recorded” stand apart in the source; their conditions may differ. Read-outs that look alike come from different tables or passages of the source.

What was measured:
[1] = system: Colon cultured human cancer cells; settings: mean among sensitive cell lines, read-out: IC50 mean +/− SD, cited from earlier work
[2] = system: Sarcoma cultured human cancer cells; settings: second panel, mean among sensitive cell lines, read-out: IC50 mean +/− SD; cited from earlier work
[3] = in vivo; settings: dog, plasma, po
[4] = system: DLBCL / soft tissue sarcoma in patients; test: Phase I trial efficacy assessment (CT/PET imaging, Lugano criteria, RECIST); type: in vivo, human
Procedure: Patients 1 and 2 had baseline cross sectional and PET imaging, and patient 3 had baseline cross sectional imaging. Protocol defined imaging was CT every 2 cycles and PET every 6 cycles or as clinically indicated. Evaluation of response was by the Lugano classification criteria for the evaluation of non-Hodgkin lymphoma, and […] for the evaluation of soft tumors. Computed tomography was performed on patient 2 on two occasions, immediately prior to treatment (pre-treatment scan obtained Oct. 29, 2021) and after two 28-day cycles of oral PCLX-001 at a daily dose of 20 mg by mouth (post-treatment scan obtained Dec. 30, 2021). Both scans were done on the same scanner using the same techniques including the use of intravenous contrast dye. The three pairs of pre and post treatment scans are of the same cross section of the patient, in order to identify a clinical trial target lesion of a liver metastasis in the subcapsular region of segment five of the liver. […] FIG. 2A-4F.

[5] = system: Lymphoma cultured human cancer cells; settings: mean among sensitive cell lines, cited from earlier work; for IC50: read-out: IC50 mean +/− SD
[6] = system: Myeloma cultured human cancer cells; settings: first panel, mean among sensitive cell lines, read-out: EC50 mean +/− SD; cited from earlier work
[7] = system: Lung cultured human cancer cells; settings: mean among sensitive cell lines, cited from earlier work; for IC50: read-out: IC50 mean +/− SD
[8] = system: Pancreas cultured human cancer cells; settings: mean among sensitive cell lines, cited from earlier work
[9] = system: Melanoma cultured human cancer cells; settings: mean among sensitive cell lines, cited from earlier work; for IC50: read-out: IC50 mean +/− SD
[10] = Animal (GLP) non-clinical safety testing; type: in vivo
Excerpt: PCLX-001 (FIG. 1) is a potent, small molecule inhibitor of human NMT1 and NMT2 proteins.

[11] = system: Brain cultured human cancer cells; settings: second panel, mean among sensitive cell lines, read-out: IC50 mean +/− SD; cited from earlier work
[12] = Allometric scaling from animal maximally tolerated doses to predict human daily oral MTD (www.truedose.app)
Procedure: The allometric scaling is based on toxicity, and the toxicity is that which establishes the Maximally Tolerated Dose (MTD) in animal studies. In mice, one toxicity study established the MTD to be 35 mg/kg. […]. […] It was not expected that, as shown herein, doses markedly lower than 180 mg daily in humans would have anticancer effects.
(§1) Allometric scaling is a means by which PK results from animal studies can be used to predict human drug exposure for a range of drug doses. In this case, allometric scaling was performed using representative values from the PK studies with daily oral PCLX-001 administration for 14 or 28 days in non-human species. These inputs were analyzed with www.truedose.app to predict the Maximally Tolerated Dose we would see in this phase one clinical trial (FIG. 2). […]

[13] = PK and maximally tolerated dose, daily oral administration, mouse; type: in vivo
Procedure: The allometric scaling is based on toxicity, and the toxicity is that which establishes the Maximally Tolerated Dose (MTD) in animal studies. In mice, one toxicity study established the MTD to be 35 mg/kg. […] It was not expected that, as shown herein, doses markedly lower than 180 mg daily in humans would have anticancer effects.
[…]. Possible explanations for this finding include hysteresis loops (7), and flip-flop pharmacokinetics (7).
as §1

[14] = Phase I trial toxicity assessment (dose limiting toxicities, CTCAE version 5.0); type: in vivo, human; settings: for hematopoietic profile and biochemistry / protocol defined dose limiting toxicities: 20 mg oral daily
Procedure: The subjects were assessed for toxicity using daily diary entries, clinical assessments at baseline, day 8, day 15, day 22, and day 28. Dose limiting toxicities were DLTs defined as the following cycle 1 CTCAE version 5.0 adverse events: Gr 4 platelets, Gr≥3 platelets with bleeding and/or transfusions, Gr 4 ANC for ≥7 days, Gr≥3 febrile neutropenia, and Gr≥3 non-hematological toxicity.

[15] = system: cancer cells (hematologic, lymphoma and solid cancer cell lines); settings: tissue culture; hematological and solid cancer cell lines; cited from earlier work
[16] = target: hERG (Homo sapiens, UniProt Q12809); test: Preclinical hERG interaction testing
Sequence of hERG (Q12809 whole entry): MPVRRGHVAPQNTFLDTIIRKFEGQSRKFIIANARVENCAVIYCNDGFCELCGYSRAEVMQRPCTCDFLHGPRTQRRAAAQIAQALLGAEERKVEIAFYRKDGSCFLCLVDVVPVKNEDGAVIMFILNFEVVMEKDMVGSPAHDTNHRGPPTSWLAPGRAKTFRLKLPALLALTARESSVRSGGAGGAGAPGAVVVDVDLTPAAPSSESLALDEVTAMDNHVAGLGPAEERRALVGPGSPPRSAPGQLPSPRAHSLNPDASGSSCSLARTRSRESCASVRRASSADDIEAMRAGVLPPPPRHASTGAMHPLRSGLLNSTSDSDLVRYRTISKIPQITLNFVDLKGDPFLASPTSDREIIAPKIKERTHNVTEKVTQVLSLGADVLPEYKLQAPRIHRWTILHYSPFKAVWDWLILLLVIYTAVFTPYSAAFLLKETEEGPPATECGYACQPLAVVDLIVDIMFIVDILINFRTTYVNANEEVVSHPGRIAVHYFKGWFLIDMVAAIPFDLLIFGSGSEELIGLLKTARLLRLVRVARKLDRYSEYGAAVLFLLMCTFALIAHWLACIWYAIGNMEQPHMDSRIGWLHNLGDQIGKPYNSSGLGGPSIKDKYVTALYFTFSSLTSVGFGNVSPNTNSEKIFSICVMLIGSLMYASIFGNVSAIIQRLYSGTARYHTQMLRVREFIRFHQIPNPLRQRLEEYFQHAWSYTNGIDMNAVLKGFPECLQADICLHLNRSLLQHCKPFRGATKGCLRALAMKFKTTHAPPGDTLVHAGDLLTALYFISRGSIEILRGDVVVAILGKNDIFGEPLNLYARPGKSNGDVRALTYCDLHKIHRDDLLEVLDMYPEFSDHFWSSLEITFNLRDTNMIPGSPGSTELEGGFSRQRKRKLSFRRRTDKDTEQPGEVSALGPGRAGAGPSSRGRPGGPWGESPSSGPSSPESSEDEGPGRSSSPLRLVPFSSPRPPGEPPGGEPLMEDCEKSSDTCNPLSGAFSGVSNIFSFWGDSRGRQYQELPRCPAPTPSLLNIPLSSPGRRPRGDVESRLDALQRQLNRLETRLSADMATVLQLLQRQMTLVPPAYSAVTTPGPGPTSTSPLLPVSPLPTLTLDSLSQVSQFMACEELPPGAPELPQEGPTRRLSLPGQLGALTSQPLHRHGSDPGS

[17] = Phase I trial plasma pharmacokinetics, two-compartment model (PK Solver 2.0); type: in vivo; settings: human, oral, 20 mg
Procedure: A different pharmacokinetic modeling program was used in the publication PK Solver 2.0 freeware (https://www.boomer.org/boomer/software/pksolver.zip; accessed 26 Nov. 2021) was used to determine the single dose pharmacokinetic parameters using a two-compartment model. […] As noted above, non-compartmental pharmacokinetic analysis was performed using Phoenix WinNonlin 8.3 using trapezoidal rule and linear up log down methodology. WinNonlin was allowed to pick optimal terminal phases.
Pharmacokinetic analysis was conducted as described above. […] These parameters are all supportive of a single daily oral dosing schedule for PCLX-001.

[18] = system: implanted human tumors; settings: cited from earlier work
[19] = system: Stomach cultured human cancer cells; settings: second panel, mean among sensitive cell lines, read-out: IC50 mean +/− SD; cited from earlier work
[20] = system: Prostate cultured human cancer cells; settings: second panel, mean among sensitive cell lines, read-out: IC50 mean +/− SD; cited from earlier work
[21] = system: kinases (KINOMEscan); settings: KINOMEscan (Fremont, CA, USA); cited from earlier work
[22] = first panel, read-out: EC50 mean +/− SD
[23] = Table 1B third line, Patient 115-002-001, Day 15 as printed

Cc1c(NS(=O)(=O)c2c(Cl)cc(-c3ccnc(N4CCNCC4)c3)cc2Cl)c(CC(C)C)nn1C [PCLX-001, 2,6-dichloro-N-(3-isobutyl-1,5-dimethyl-1H-pyrazol-4-yl)-4-(2-(piperazin-1-yl)pyridin-4-yl)benzene sulfonamide]
IC50 ([1]; second panel): 158 ± 27.4 nM
IC50 ([1]; third panel): 210 ± 85.4 nM
IC50 [2]: 198 ± 134 nM
Cmax [3]: 650 ng/mL
half-life [3]: 3.8 h
disease response (Lugano criteria, computed tomography day 28) ([4]; Patient 1, refractory relapsed DLBCL, 20 mg oral daily): disease progression; also recorded: progression of the volume of lymphoma
response in lymph nodes ([4]; Patient 2, DLBCL, 20 mg oral daily): progressive disease in lymph nodes
response of hepatic metastatic disease on CT ([4]; Patient 2, DLBCL, 20 mg oral daily, about two months): marked reduction of volume of hepatic metastatic disease; also recorded: marked tumor response in hepatic metastases; also recorded: marked tumor regression; also recorded: regression of a malignant lesion in the liver
response assessment scans ([4]; Patient 3, leiomyosarcoma, after two 28 day cycles): progressive disease
EC50 [5, 22]: 80.9 nM
IC50 ([5]; second panel): 138 ± 55.8 nM
IC50 ([5]; third panel): 230 ± 107 nM
EC50 [6]: 144 ± 44.7 nM
EC50 [7, 22]: 151 ± 88.2 nM
IC50 ([7]; second panel): 184 ± 82.8 nM
IC50 ([7]; third panel): 154 ± 111 nM
EC50 [8, 22]: 109 ± 90 nM
IC50 ([8]; second panel, read-out: IC50 mean +/− SD): 77.7 ± 13.7 nM
EC50 [9, 22]: 134 ± 53.9 nM
IC50 ([9]; second panel): 208 ± 99.5 nM
IC50 ([9]; third panel): 157 ± 192 nM
cardiac conduction [10]: no cardiac conduction issues
IC50 [11]: 153 ± 63.5 nM
Allometric prediction of human MTD ([12]; scaled from dog MTD): 137 mg mg/70 kg
Allometric prediction of human MTD ([12]; scaled from mouse MTD): 180 mg mg/70 kg
Allometric prediction of human MTD ([12]; scaled from rat MTD): 1300 mg mg/70 kg
Maximally Tolerated Dose daily oral administration [13]: 35 mg/kg
Cmax ([13]; in vivo, po): 46000 ng/mL
half-life ([13]; in vivo, po): 1.6 h
hematopoietic profile and biochemistry ([14]; Patient 1): remained normal; also recorded: no evidence of toxicity
protocol defined dose limiting toxicities ([14]; Patient 1, 28 day cycle): did not experience any dose limiting toxicities; also recorded: no protocol defined dose limiting toxicities
hematopoietic profile and biochemistry ([14]; Patient 2): remained normal
protocol defined dose limiting toxicities ([14]; Patient 2): no protocol defined dose limiting toxicities
drug related toxicities ([14]; Patient 3, daily PCLX-001, two 28 day cycles): No drug related toxicities were identified
inhibition of cancer cell growth in vitro [15]: inhibition of cell growth; also recorded: markedly inhibited
hERG interaction [16]: no significant hERG interaction
AUC(0-inf) ([17]; Table 1B fourth line, Patient 115-002-001, Day 15): 2640 ng·h/mL
AUC(0-inf) [17, 23]: 2360 ng·h/mL
AUC(0-t) [17, 23]: 1700 ng·h/mL
Cmax [17, 23]: 278 ng/mL
half-life [17, 23]: 16.4 h
anticancer activity in mice bearing human cancers ([18]; 10 mg/kg or lower): no evident anticancer activity
anti-cancer effects in mice with implanted human tumors ([18]; 35 mg/kg and higher doses): had anti-cancer effects
response of human cancers grown in immunodeficient mice ([18]; preclinical studies): complete remissions
IC50 [19]: 120 ± 48.2 nM
IC50 [20]: 85.4 ± 59.2 nM
off target kinase inhibition [21]: no significant off target kinase inhibition
